# Tested on: rice (Oryza sativa L.) varieties ADT45
# Experiment: Plant growth regulation field trial in rice, India (lodging, plant height, heat stress symptoms)
# Assay type: in vivo
# Experimental: Field trials were setup during the hot season in Annanagar and Kumbakonam in India. Local rice (Oryza sativa L.) varieties ADT45 was mechanically transplanted at four plants per hill with a plant spacing of 16 cm and a row spacing of 30 cm. All trials were performed in good level of water management. Fertilizer application, and weed, insect and disease control were carried out in accordance with the best local practice across the trial area. Commercial treated seeds were used (with no neonicotinoid compounds present).
# The trial design was a randomized bloc design, with a plot size of 40 m^2 (12 rows, each […] and 10 m long); each trial had four replicates.
# Overall trial quality was very high: there was no insect damage and no disease pressure or weeds; the plots were very homogenous. Heat stress level was low to medium with 5-10% empty spikelets in the untreated control.
structure (smiles),measurement,setting,value
COc1cccc(Nc2nc(F)nc3[nH]cnc23)c1 [Formula (Ia)],Lodging (%),"10 g ai/ha, applied at panicle initiation (BBCH 30)",29.0%
same,Lodging (%),"20 g ai/ha, applied at BBCH 30",56.0%
same,Lodging compared to the untreated control,result in words,significantly reduces lodging
